# Test results from US7674457B2, “Methods for enhancing neuroprotection via administration of stem cells and blood brain barrier permeabilizers” (University of South Florida, priority 2003, dated 2010).
# Key:
# GDNF, NGF, and BDNF = assay: Blood levels of trophic factors by ELISA at day 3 after stroke; type: in vivo, Sprague-Dawley rats; settings: intravenous
# Method: Finally, the blood levels of GDNF, NGF, and BDNF were measured to further determine the source of trophic factors. Additional stroke animals (n=6 per group) were subjected to the same surgical/drug regimen as above and were euthanized at day 3 after stroke.
# trophic factors = assay: Trophic factors in peripheral organs (kidneys, lungs, spleens) of stroke animals; type: in vivo, Sprague-Dawley rats; settings: intravenous, lungs, and spleens
smiles,measurement,setting,value
OC[C@@H](O)[C@@H](O)[C@H](O)[C@H](O)CO [mannitol],trophic factors in circulating blood,"GDNF, NGF, and BDNF",no detectable levels
same,"elevation of trophic factors in peripheral organs, above controls",trophic factors,8%
